Results taken from paper PMC7567642, “A Fully Integrated Assay Panel for Early Drug Metabolism and Pharmacokinetics Profiling” (Assay and Drug Development Technologies, 2020).
Converted amounts (≈) assume the structure as drawn. Where two headings read alike, the source gives them in different places.

Tests used:
[1] = Automated shake-flask logD7.4 assay (1-octanol/phosphate buffer pH 7.4); format: physicochemical
Protocol: The assay starts with transfer of individual compound solutions into pools of 10 compounds, alongside two pool QCs, using a Hamilton STARplus liquid handling workstation. […] This step combines 4 μL each of 10 mM compound solutions to a total of 48 μL in an intermediate plate (pool QCs are at 5 mM each). These and subsequent transfers as outlined below involve fresh pipetting tips to eliminate risks of cross-contamination.
The next assay step involves transfer of 500 μL octanol from a tray to an empty deep well plate, to which 10 μL of each pool is subsequently transferred and thoroughly mixed by repetitive aspiration and dispensing. An octanol-saturated phosphate buffer at pH 7.4 is then added (500 μL) followed by sealing of the content with a PP-based lid. Vigorous shaking of the content is achieved through vortexing for 30 s and equilibration of compound between the two phases is further established through a 3 h incubation on a plate shaker.
Following equilibration, the deep well plate is centrifuged to ensure separation between phases and the plate is next moved back to the Hamilton platform for sampling of 5 μL from the octanol phase. The sample is placed in a first dilution plate together with 495 μL of an AcN:H2O mix (1:2) containing FA (0.1%) and verapamil as internal standard (IS). The acidified and IS containing AcN solution, which is common for the logD7.4 and Sol assays, is referred to as the IS solution. The content is thoroughly mixed and next serially diluted to four additional plates with 10-fold dilutions to maximize the ability to detect weakly concentrated solutions and afford investigations of linearity in response.
After sampling, the remaining octanol is removed from the deep well plate through careful pipetting, followed by sampling from the aqueous buffer. […]
The plates are next brought to the MS instrumentation (Xevo TQS; Waters) and read out using the established UPLC-MS/MS methods. […]

[2] = set-up: method as in PMID 19429424; conditions: published dried DMSO assays; cited from earlier work
[3] = QC control, literature value; cited from earlier work
[4] = target: Ataxia Telangiectasia Mutated (ATM) kinase (Homo sapiens, UniProt Q13315); conditions: ATM inhibitor project
[5] = Dried DMSO solubility assay (Sol), phosphate buffer pH 7.4; format: physicochemical; conditions: ATM inhibitor project
Protocol: Unlike the logD7.4 assay compounds are not pooled, but instead 50 μL of individual DMSO stock solutions are transferred to glass vials kept in a 3D printed rack that facilitates subsequent liquid transfers using a 96-well pipetting head on the Hamilton STARplus platform. There is no pool QC in the Sol workflow, instead this is replaced with the inclusion of three QCs, the positioning of which is randomized for each week. Solvent is evaporated and the dried compounds are resolubilized in 500 μL of aqueous phosphate buffer at pH 7.4.
Individual Stir Stixs are added to each glass vial using a drop dispenser from V&P Scientific, Inc., a rubber mat is used to seal the vials, and samples are then equilibrated under mixing for 20–24 h. […]
The process of centrifugation and transfer is repeated to remove any remaining debris, except that the 20 μL supernatant transfer combines sampling and pooling of 10 samples to a pool plate with 200 μL of an IS solution (same as in logD7.4). […] Finally, sample and standard plates are sealed and read out, analyzed, and qualified as described for the logD7.4 assay. Calculated solubility values (in μM) are exported into our internal database ensuring global availability to users.

human plasma = conditions: cited from earlier work

Sequence of Ataxia Telangiectasia Mutated (ATM) kinase (Q13315 whole entry, species assumed, change not shown): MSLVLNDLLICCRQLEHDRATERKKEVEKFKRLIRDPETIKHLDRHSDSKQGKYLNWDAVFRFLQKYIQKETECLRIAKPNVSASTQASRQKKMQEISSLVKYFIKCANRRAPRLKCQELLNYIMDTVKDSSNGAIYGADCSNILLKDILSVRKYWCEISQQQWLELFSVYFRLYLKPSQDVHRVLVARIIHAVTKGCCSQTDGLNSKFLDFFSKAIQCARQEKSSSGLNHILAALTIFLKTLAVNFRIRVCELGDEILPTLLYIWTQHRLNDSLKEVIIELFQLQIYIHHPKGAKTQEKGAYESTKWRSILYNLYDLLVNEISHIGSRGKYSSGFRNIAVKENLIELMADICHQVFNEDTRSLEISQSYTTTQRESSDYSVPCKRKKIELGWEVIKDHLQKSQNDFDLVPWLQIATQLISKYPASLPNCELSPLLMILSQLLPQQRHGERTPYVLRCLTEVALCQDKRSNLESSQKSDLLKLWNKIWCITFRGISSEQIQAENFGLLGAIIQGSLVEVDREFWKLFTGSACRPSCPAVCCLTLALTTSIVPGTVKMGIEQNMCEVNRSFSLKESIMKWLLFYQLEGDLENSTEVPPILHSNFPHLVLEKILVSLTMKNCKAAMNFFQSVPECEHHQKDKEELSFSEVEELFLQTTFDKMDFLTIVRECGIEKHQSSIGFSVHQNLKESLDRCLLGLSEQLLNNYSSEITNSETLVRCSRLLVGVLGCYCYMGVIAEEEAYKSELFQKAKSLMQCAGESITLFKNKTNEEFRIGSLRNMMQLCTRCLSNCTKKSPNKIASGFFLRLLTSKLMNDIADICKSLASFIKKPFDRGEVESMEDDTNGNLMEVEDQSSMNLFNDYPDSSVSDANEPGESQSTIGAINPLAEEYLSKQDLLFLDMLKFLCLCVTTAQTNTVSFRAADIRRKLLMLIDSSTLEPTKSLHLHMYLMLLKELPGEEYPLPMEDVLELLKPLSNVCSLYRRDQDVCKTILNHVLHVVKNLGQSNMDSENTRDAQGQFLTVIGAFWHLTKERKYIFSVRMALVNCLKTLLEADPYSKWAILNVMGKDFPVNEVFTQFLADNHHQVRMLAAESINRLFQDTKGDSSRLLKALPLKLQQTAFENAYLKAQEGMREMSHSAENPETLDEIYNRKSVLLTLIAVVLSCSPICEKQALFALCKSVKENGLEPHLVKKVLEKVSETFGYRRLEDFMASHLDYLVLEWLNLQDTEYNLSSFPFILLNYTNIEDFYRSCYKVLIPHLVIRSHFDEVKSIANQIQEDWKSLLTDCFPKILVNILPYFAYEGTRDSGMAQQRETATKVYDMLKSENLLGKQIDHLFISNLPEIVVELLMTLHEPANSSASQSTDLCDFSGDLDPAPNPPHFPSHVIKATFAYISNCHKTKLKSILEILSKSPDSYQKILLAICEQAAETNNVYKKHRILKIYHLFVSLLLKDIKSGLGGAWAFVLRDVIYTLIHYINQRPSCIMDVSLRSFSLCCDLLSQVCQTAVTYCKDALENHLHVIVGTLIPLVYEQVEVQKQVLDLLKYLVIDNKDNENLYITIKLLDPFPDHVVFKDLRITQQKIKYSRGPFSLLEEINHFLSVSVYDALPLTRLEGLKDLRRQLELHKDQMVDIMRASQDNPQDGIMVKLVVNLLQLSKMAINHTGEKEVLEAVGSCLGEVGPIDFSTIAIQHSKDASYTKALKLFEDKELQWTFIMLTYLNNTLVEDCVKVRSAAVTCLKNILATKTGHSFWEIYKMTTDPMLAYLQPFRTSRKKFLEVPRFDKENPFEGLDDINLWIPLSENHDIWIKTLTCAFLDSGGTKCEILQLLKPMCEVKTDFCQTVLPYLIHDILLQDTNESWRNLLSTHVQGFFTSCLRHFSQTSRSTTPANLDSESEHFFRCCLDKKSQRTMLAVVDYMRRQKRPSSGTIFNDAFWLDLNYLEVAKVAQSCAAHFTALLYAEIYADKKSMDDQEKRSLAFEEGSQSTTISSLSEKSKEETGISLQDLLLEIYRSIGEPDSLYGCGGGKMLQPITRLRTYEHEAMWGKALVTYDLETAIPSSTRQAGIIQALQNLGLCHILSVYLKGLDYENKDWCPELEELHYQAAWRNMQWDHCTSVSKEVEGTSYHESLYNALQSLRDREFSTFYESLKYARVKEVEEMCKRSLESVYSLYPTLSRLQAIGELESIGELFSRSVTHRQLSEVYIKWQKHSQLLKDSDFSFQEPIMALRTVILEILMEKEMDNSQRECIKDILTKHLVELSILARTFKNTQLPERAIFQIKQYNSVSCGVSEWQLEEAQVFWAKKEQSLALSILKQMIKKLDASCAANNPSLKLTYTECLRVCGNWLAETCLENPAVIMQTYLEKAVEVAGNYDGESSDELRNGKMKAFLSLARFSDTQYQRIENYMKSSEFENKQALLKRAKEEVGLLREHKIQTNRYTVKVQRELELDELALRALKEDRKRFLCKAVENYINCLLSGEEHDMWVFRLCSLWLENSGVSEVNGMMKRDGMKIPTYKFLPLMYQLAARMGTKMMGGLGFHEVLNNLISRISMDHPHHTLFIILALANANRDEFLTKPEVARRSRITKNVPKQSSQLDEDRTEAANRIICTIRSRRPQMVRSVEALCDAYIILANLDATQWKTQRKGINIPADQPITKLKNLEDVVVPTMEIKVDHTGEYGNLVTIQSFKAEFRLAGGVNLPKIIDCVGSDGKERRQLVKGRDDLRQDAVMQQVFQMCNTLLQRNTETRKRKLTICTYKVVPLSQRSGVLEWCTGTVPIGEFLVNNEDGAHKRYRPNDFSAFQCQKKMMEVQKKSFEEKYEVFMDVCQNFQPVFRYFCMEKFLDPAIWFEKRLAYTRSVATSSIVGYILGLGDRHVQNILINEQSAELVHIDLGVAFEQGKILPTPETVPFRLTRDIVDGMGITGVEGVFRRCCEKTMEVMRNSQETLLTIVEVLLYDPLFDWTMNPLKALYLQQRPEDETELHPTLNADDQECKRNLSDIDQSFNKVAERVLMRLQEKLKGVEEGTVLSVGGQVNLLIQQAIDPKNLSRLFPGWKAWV

**Q.** For CC(C)n1c(=O)n(C)c2cnc3cc(F)c(-c4ccc(OCCCN5CCCCC5)nc4)cc3c21, which logD at 3 h ([1]; pH 7.4, ATM inhibitor project, DMPK Wave 1 panel) is on record?
**A.** 2.7

**Q.** For COc1ccc(CCN2CCC(Nc3nc4ccccc4n3Cc3ccc(F)cc3)CC2)cc1 [astemizole, Astemizole], which solubility [2] is on record?
**A.** 2.9 µM (≈ 1.33 µg/mL)

**Q.** With CN(C)CCCN1c2ccccc2Sc2ccc(Cl)cc21 [chlorpromazine, Chlorpromazine] as the molecule, how does the solubility [2] read?
**A.** 450 µM (≈ 143 µg/mL)

**Q.** For CN(C)CCC=C1c2ccccc2C=Cc2ccccc21 [cyclobenzaprine, Cyclobenzaprine], which logD7.4 [3] is on record?
**A.** 2.8

**Q.** Which results are given for CCC(CC)CNc1c(C(N)=O)cnc2ccc(C#N)cc12 [initial starting point]?
**A.** potency on the target protein (in words) [4]: μM potency; logD7.4 ([1]; ATM inhibitor project, DMPK Wave 1 panel): 3.5; solubility (in words) [5]: low μM solubility

**Q.** Which “fu (fraction unbound)” value (human plasma) does the source give for COCCc1ccc(OCC(O)CNC(C)C)cc1 (centres unmarked) [metoprolol, Metoprolol] here?
**A.** ~85%

**Q.** For COC(=O)C1=C(C)NC(C)=C(C(=O)OCCN(C)Cc2ccccc2)C1c1cccc([N+](=O)[O-])c1 (centres unmarked) [nicardipine, Nicardipine], which logD at 3 h ([1]; 1-octanol/phosphate buffer pH 7.4, pH 7.4, QC control, in-house data) is on record?
**A.** 4.5

**Q.** With O=C1NC(=O)C(c2ccccc2)(c2ccccc2)N1 [phenytoin, Phenytoin] as the molecule, how does the solubility [2] read?
**A.** 86 µM (≈ 21.7 µg/mL)

**Q.** Which “fu (fraction unbound)” value (human plasma) does the source give for CC(=O)CC(c1ccccc1)c1c(O)c2ccccc2oc1=O (centres unmarked) [warfarin, Warfarin] here?
**A.** ~1%
